Results: the NIST ThermoML archive (doi:10.1016/j.fluid.2007.07.017)
Numbers after ± are expanded uncertainties.

Assay: xn = mol fraction of the nth substance listed
Details: Liquid, Vibrating tube method

C=C [ethene] + CCCCO
Details	mass density [kg/m3]
283.65 K, x1 = 0.17	781.4 ± 0.6
283.65 K, x1 = 0.224	767.7 ± 0.5
283.65 K, x1 = 0.322	743.7 ± 0.6
283.65 K, x1 = 0.401	718.9 ± 0.7
283.65 K, x1 = 0.47	695.8 ± 0.8
283.65 K, x1 = 0.545	660.9 ± 1
283.65 K, x1 = 0.98	323.2 ± 1.2
283.65 K, x1 = 0.99	296.6 ± 1.2
283.65 K, x1 = 0.994	287 ± 1.2
290.8 K, x1 = 0.206	768.3 ± 0.6
290.8 K, x1 = 0.265	752.1 ± 0.6
290.8 K, x1 = 0.339	732 ± 0.6
290.8 K, x1 = 0.43	707.5 ± 0.8
290.8 K, x1 = 0.528	664.6 ± 0.9
290.8 K, x1 = 0.622	624.4 ± 1
290.8 K, x1 = 0.655	601.6 ± 1.2
290.8 K, x1 = 0.691	585 ± 1.8
290.8 K, x1 = 0.745	527.5 ± 2.4
